Columns and labels:
[1] = tested on: RORα; conditions: same FRET assay; reported; cited from earlier work
[2] = tested on: LXRβ; conditions: reporter-gene assay; reported; cited from earlier work
[3] = tested on: LXRα; conditions: reporter-gene assay; reported; cited from earlier work
[4] = tested on: SF1; conditions: same FRET assay; reported; cited from earlier work
[5] = tested on: Rev-erbα-NCoR interaction; conditions: read-out: EC50, enhancement of Rev-erbα-NCoR interaction; FRET assay; cited from earlier work
[6] = biological target: T1, Rev-erbα (Homo sapiens, UniProt P20393); conditions: Luminex technology; cited from earlier work
T1 sequence (P20393 1-614): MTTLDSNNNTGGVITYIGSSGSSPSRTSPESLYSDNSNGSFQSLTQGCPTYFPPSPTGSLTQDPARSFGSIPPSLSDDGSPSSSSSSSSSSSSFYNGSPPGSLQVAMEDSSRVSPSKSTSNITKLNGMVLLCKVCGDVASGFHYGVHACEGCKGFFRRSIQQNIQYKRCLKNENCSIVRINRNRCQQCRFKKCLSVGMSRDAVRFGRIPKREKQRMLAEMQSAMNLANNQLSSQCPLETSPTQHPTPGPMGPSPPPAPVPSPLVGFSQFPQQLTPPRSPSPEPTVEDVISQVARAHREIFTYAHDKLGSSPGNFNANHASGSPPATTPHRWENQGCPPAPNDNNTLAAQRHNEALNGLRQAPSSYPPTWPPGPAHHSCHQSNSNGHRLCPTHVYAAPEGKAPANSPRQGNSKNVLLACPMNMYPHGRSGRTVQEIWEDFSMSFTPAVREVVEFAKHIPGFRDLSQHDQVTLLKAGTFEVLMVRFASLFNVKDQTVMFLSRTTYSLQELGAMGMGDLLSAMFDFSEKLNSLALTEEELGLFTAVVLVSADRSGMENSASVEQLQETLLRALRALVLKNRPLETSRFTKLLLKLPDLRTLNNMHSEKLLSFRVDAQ

[7] = Mouse plasma and brain exposure after IP dose; assay type: in vivo, C57Bl6 mice
[8] = tested on: FXR; conditions: same FRET assay; reported; cited from earlier work
[9] = tested on: Rev-erbβ; conditions: Luminex technology; cited from earlier work
[10] = tested on: LRH1; conditions: same FRET assay; reported; cited from earlier work
[11] = biological target: T1, Rev-erbα; conditions: circular dichroism analysis; cited from earlier work
[12] = tested on: REV-ERB ligand binding domain (LBD) β; conditions: HEK293 cells, Gal4 DBD:REV-ERB LBD β; cited from earlier work
[13] = biological target: T1, Rev-erbα; conditions: HEK293 cells, Gal4 DBD:REV-ERB LBD α; cited from earlier work

CC(C)(C)OC(=O)CN(Cc1ccc(Cl)cc1)Cc1ccc([N+](=O)[O-])s1 [Compound 1]
activity on RORα [1]: no activity | activity on LXRβ [2]: no activity | activity on LXRα [3]: no activity | activity on SF1 [4]: no activity | EC50 [5]: 400 nM | interaction of Rev-erbα with the NCoR peptide [6]: dose-dependently increased | b.p. (brain penetration) ([7]; mice, 10 mg/kg IP in 10:10:80 DMSO:Tween:water, t = 2h): 140% | activity on FXR [8]: no activity | interaction of Rev-erbβ with the NCoR peptide [9]: dose-dependently increased | activity on LRH1 [10]: no activity

CCOC(=O)N1CCC(CN(Cc2ccc(Cl)cc2)Cc2ccc([N+](=O)[O-])s2)C1 (stereo not drawn) [Compound 12e]
Direct binding to Rev-erbα [11]: confirmed | Rev-erb-dependent repressor activity (LBD β) [12]: dose-dependently increased | Rev-erb-dependent repressor activity (LBD α) [13]: dose-dependently increased | [Brain] ([7]; mice, 50 mg/kg IP in 15% cremaphor EL, brain levels at 8h): ^d8.7 μM

CS(=O)(=O)N1CCC(CN(Cc2ccc(Cl)cc2)Cc2ccc([N+](=O)[O-])s2)C1 (stereo not drawn) [Compound 12j]
Kp at 2 h ([7]; C57Bl6, mouse, brain, ip, 10 mg/kg): 2.42

— publication PMC3376186 (Bioorganic & medicinal chemistry letters, 2012)
